Numbered stars: 1 amine (or outer) side, 2 acyl side, 3 side chain; on linkers, the order of the positions; unused ones are H or OH. Bridge positions count the residues as written; N and C are the ends. Square brackets hold non-standard residues; d marks the D form. Peptide text beside a SMILES is read from it. * marks the point of attachment. Glutaryl = O=C(CCCC(=O)[*:2])[*:1]; Isobutyryl = CC(C)C(=O)*; Orn = NCCC[C@H](N)C(=O)O; Dab = NCC[C@H](N)C(=O)O; Dap = NC[C@H](N)C(=O)O; Aoc = NCCCCCCCC(=O)O; Ahp = NCCCCCCC(=O)O; Ahx = NCCCCCC(=O)O; βAla = NCCC(=O)O

The subject of this assay is MCP-1. As to the kind of experiment: In vitro chemotaxis (trans-well migration) v MCP-1. Type of assay: cell-based, human. The method, then:
To determine whether an agent inhibits a chemokine-induced activity, such as macrophage recruitment, varying amounts of the agent are mixed with cells in the presence of a known chemoattractant. For example, a range of known concentrations of an agent, e.g., a chemokine peptide, is incubated with a defined number (e.g., 10^4-10^6) of human THP-1 monocyte cells in individual wells of the top compartment of a trans-well plate. Chemokine, at a concentration known to cause significant migration of THP-1 cells in the trans-well migration assay, is placed in the lower compartment of a trans-well plate. Cells are then incubated at 37° C. for a period sufficient to allow migration, e.g., 4 hours. After incubation, the cells are gently removed from the top of the filter with a pipette, 20 μl of 20 mM EDTA in simple PBS is added into each top well, and incubated for 20 minutes at 4° C. The filter is carefully flushed with media using a gentle flow, and removed. A standard curve consisting of a two-fold dilution series of THP-1 cells (in 29 μl) is placed to accurately quantify the number of cells that have migrated. Migrated cells are stained with 3 μl of MTT stock dye solution which is added directly into each well (5 mg/ml in RPMI-1640 without phenol red) (Sigma Chemical Co., St. Louis, Mo., USA) and incubated at 37° C. for 4 hours. The media is carefully aspirated from each well, and the converted dye is solubilized by 20 μl of DMSO. Absorbance of converted dye is measured at a wavelength of 595 nm using an ELISA plate reader. The number of migrated cells in each well is then determined by interpolation of the standard curve (see also Imai et al., J. Biol. Chem., 272:15036, 1997). Any method suitable for counting cells can be used, for example, counting with a hemocytometer, incubation of the cells with MTT (see above), or FACS analysis. A negative control assay is also performed, using TGFβ or another non-chemokine chemoattractant (e.g., IL1β or TNFα). To assess whether the agent is cytotoxic, the same concentrations of agent are incubated with THP-1 cells. Agents which 1) are not cytotoxic at levels which inhibit migration, 2) are ineffective at inhibiting the negative control-induced migration, and 3) reduce or inhibit chemokine-induced THP-1 migration, are agents which fall within the scope of the invention.

For `CC[C@H](C)[C@@H]1NC(=O)[C@@H](NC(=O)[C@@H](N)Cc2c[nH]c3ccccc23)CSSC[C@@H](C(N)=O)NC(=O)[C@H](CCC(N)=O)NC1=O` [Example 85, Trp-c(Cys-Ile-Gln-Cys)-NH2] (H-WCIQC-NH2; disulfide 2-5), the EC50 (as a rule, the midpoint of the concentration-response curve) came to 50 nM.
As for “[aminoPeg10-oxaglutaryl]2-c(D-Cys-D-Gln-D-Ile-D-Trp-D-Lys-D-Gln-D-Lys-D-Pro-D-Asp-D-Leu-D-Cys)-NH2 [Example 186]”, the figure is 20 nM; as for `CC[C@@H](C)[C@H]1NC(=O)[C@@H](CCC(N)=O)NC(=O)CCNC(=O)C[C@H](C(N)=O)NC(=O)[C@@H](CCCCN)NC(=O)[C@@H](Cc2c[nH]c3ccccc23)NC1=O` [Example 195, c((βAla-D-Gln-D-Ile-D-Trp-D-Lys-D-Asp)-NH2] ([βAla][dQ][dI][dW][dK][dD]-NH2; lactam N-6), 45 nM.
As for `CC[C@H](C)[C@H](NC(=O)[C@H](Cc1c[nH]c2ccccc12)NC(=O)[C@H](CCCCN)NC(=O)[C@H](CC(=O)O)NC(=O)C(C)C)C(=O)N[C@@H](CCC(N)=O)C(=O)N[C@@H](CCCCN)C(N)=O` [Example 201, Isobutyryl-Asp-Lys-Trp-Ile-Gln-Lys-NH2] (Isobutyryl-DKWIQK-NH2), the figure is 10 nM; as for `NCCCC[C@@H]1NC(=O)CCNC(=O)C[C@@H](C(N)=O)NC(=O)[C@H](CCC(N)=O)NC(=O)[C@H](Cc2c[nH]c3ccccc23)NC1=O` [Example 59, c((βA1a-Lys-Trp-Gln-Asp)-NH2] ([βAla]KWQD-NH2; lactam N-5), 25 nM.
Compound `CC[C@H](C)[C@@H]1NC(=O)[C@H](Cc2c[nH]c3ccccc23)NC(=O)[C@H](CCCCN)NC(=O)[C@@H](NC(=O)C(C)C)CCNC(=O)C[C@@H](C(N)=O)NC(=O)[C@H](CCC(N)=O)NC1=O` [Example 105, Isobutyryl-c(Dab-Lys-Trp-Ile-Gln-Asp)-NH2] (Isobutyryl-[Dab]KWIQD-NH2; lactam 1-6) registered an EC50 of 15 nM.
As for `CC[C@H](C)[C@@H]1NC(=O)[C@H](Cc2c[nH]c3ccccc23)NC(=O)[C@H](CCCCN)NC(=O)[C@@H](NC(C)=O)CNC(=O)CC[C@@H](C(N)=O)NC(=O)[C@H](CCC(N)=O)NC1=O` [Example 121, Ac-c(Dap-Lys-Trp-Ile-Gln-Glu)-NH2] (Ac-[Dap]KWIQE-NH2; lactam 1-6), the figure is 10 nM; as for `CC[C@H](C)[C@@H]1NC(=O)[C@H](Cc2c[nH]c3ccccc23)NC(=O)[C@H](CCCCN)NC(=O)CCCCCNC(=O)C[C@@H](C(N)=O)NC(=O)[C@H](CCC(N)=O)NC1=O` [Example 5, c(Ahx-Lys-Trp-Ile-Gln-Asp)-NH2] ([Ahx]KWIQD-NH2; lactam N-6), 5 nM; as for `CC[C@H](C)[C@@H]1NC(=O)[C@H](Cc2c[nH]c3ccccc23)NC(=O)[C@H](CCCCN)NC(=O)[C@@H](NC(=O)C(C)C)CC(=O)NCCC[C@@H](C(N)=O)NC(=O)[C@H](CCC(N)=O)NC1=O` [Example 99, Isobutyryl-c(Asp-Lys-Trp-Ile-Gln-Orn)-NH2] (Isobutyryl-DKWIQ[Orn]-NH2; lactam 1-6), 50 nM.
In the case of `CC[C@H](C)[C@@H]1NC(=O)[C@H](Cc2c[nH]c3ccccc23)NC(=O)[C@H](CCCCN)NC(=O)[C@@H](NC(=O)C(C)C)CCC(=O)NC[C@@H](C(N)=O)NC(=O)[C@H](CCC(N)=O)NC1=O` [Example 100, Isobutyryl-c(Glu-Lys-Trp-Ile-Gln-Dap)-NH2] (Isobutyryl-EKWIQ[Dap]-NH2; lactam 1-6) it was 10 nM.
In the case of `CC[C@H](C)[C@@H]1NC(=O)[C@@H](Cc2c[nH]c3ccccc23)NC(=O)[C@H](CCCCN)NC(=O)[C@@H](NC(C)=O)CSSC[C@@H](C(N)=O)NC(=O)[C@H](CCC(N)=O)NC1=O` [Example 77, Ac-c(Cys-Lys-D-Trp-Ile-Gln-Cys)-NH2] (Ac-CK[dW]IQC-NH2; disulfide 1-6) it was 20 nM; in that of `CC[C@H](C)[C@@H]1NC(=O)[C@H](Cc2c[nH]c3ccccc23)NC(=O)[C@H](CCCCN)NC(=O)[C@@H](NC(C)=O)CCC(=O)NCCCC[C@@H](C(N)=O)NC(=O)[C@H](CCC(N)=O)NC1=O` [Example 116, Ac-c(Glu-Lys-Trp-Ile-Gln-Lys)-NH2] (Ac-EKWIQK-NH2; lactam 1-6), 8 nM.
As to `CC[C@H](C)[C@@H]1NC(=O)[C@H](Cc2c[nH]c3ccccc23)NC(=O)[C@H](CCCCN)NC(=O)CCCCCCCNC(=O)CC[C@@H](C(N)=O)NC(=O)[C@H](CCC(N)=O)NC1=O` [Example 96, c(Aoc-Lys-Trp-Ile-Gln-Glu)-NH2] ([Aoc]KWIQE-NH2; lactam N-6), the EC50 is 4 nM.
In the case of `CC[C@H](C)[C@@H]1NC(=O)[C@H](Cc2c[nH]c3ccccc23)NC(=O)[C@H](CCCCN)NC(=O)CCCCCCNC(=O)C[C@@H](C(N)=O)NC(=O)[C@H](CCC(N)=O)NC1=O` [Example 93, c(Aha-Lys-Trp-Ile-Gln-Asp)-NH2] ([Ahp]KWIQD-NH2; lactam N-6) it was 8 nM.
In the case of `CC[C@H](C)[C@@H]1NC(=O)[C@H](Cc2c[nH]c3ccccc23)NC(=O)[C@H](CCCCN)NC(=O)[C@@H](NC(C)=O)CSSC[C@H](C(N)=O)NC(=O)[C@H](CCC(N)=O)NC1=O` [Example 74, Ac-c(Cys-Lys-Trp-Ile-Gln-D-Cys)-NH2] (Ac-CKWIQ[dC]-NH2; disulfide 1-6) it was 7 nM; in that of `CC[C@H](C)[C@@H]1NC(=O)[C@H](Cc2c[nH]c3ccccc23)NC(=O)[C@H](CCCCN)NC(=O)[C@@H](NC(C)=O)CC(=O)NCCCC[C@@H](C(N)=O)NC(=O)[C@H](CCC(N)=O)NC1=O` [Example 64, Ac-c(Asp-Lys-Trp-Ile-Gln-Lys)-NH2] (Ac-DKWIQK-NH2; lactam 1-6), 20 nM.
In the case of `CC[C@H](C)[C@@H]1NC(=O)[C@H](Cc2c[nH]c3ccccc23)NC(=O)[C@H](CCCCN)NC(=O)[C@@H](NC(=O)C(C)C)CC(=O)NC[C@@H](C(N)=O)NC(=O)[C@H](CCC(N)=O)NC1=O` [Example 6, Isobutyryl-c(Asp-Lys-Trp-Ile-Gln-Dap)-NH2] (Isobutyryl-DKWIQ[Dap]-NH2; lactam 1-6) it was 5 nM.
In turn, `N[C@@H](Cc1c[nH]c2ccccc12)C(=O)NCC(=O)NC1CCC(=O)NC1=O` (stereo partly drawn) [Example 180, Trp-Gly-α-aminoglutaramide] showed a 50% effective concentration (EC50) of 25 nM.
As for `CC[C@H](C)[C@@H]1NC(=O)[C@H](Cc2c[nH]c3ccccc23)NC(=O)[C@H](CCCCN)NC(=O)CCCC(=O)NC[C@@H](C(N)=O)NC(=O)[C@H](CCC(N)=O)NC1=O` [Example 127, c(Glutaryl-Lys-Trp-Ile-Gln-Dap)-NH2NH2] (KWIQ[Dap]-NH2; linker N-5 via Glutaryl), the figure is 7 nM; as for `CC[C@H](C)[C@@H]1NC(=O)[C@H](Cc2c[nH]c3ccccc23)NC(=O)[C@H](CCCCN)NC(=O)[C@@H](NC(C)=O)CC(=O)NC[C@@H](C(N)=O)NC(=O)[C@H](CCC(N)=O)NC1=O` [Example 110, Ac-c(Asp-Lys-Trp-Ile-Gln-Dap)-NH2] (Ac-DKWIQ[Dap]-NH2; lactam 1-6), 8 nM.
`CC[C@H](C)[C@@H]1NC(=O)[C@H](Cc2c[nH]c3ccccc23)NC(=O)[C@H](CCCCN)NC(=O)[C@@H](NC(=O)C(C)C)CCCNC(=O)CC[C@@H](C(N)=O)NC(=O)[C@H](CCC(N)=O)NC1=O` [Example 108, Isobutyryl-c(Orn-Lys-Trp-Ile-Gln-Glu)-NH2] (Isobutyryl-[Orn]KWIQE-NH2; lactam 1-6) showed an EC50 of 8 nM. In other words, the single-digit nanomolar range.
